The numbers were not newly measured in patent US8288445B2, “Stable pharmaceutical products” (Nycomed GmbH, priority 2003, dated 2012), which cites them from elsewhere.

The structures appear in SMILES notation.

The conditions of the data set: disclosed in U.S. Pat. No. 6,268,533 and WO 00/21487.

On to `COc1ccc(C[C@@H](C)NC[C@H](O)c2ccc(O)c(NC=O)c2)cc1.O=C(O)C(O)C(O)C(=O)O` [L-(+)-tartrate salt of R,R-formoterol], for which the hygroscopicity entry was “non-hygroscopic”.
